Reference: US9593305B2, “Differentiation of pluripotent stem cells” (Janssen Biotech, Inc., priority 2008, dated 2017)

Tested on: H1 human embryonic stem cells
Experiment: Secondary assay: panel of compounds with growth factor combinations and muscimol, no activin A (Example 6, Table 5)
Assay type: cell-based
Settings: for Cell Number, % of positive control / Cell Number, Average Total Cell Number / Sox17 Expression, % of positive control / Sox17 Expression, Average Total Intensity: no AA (with Wnt3a)
Method: Clusters of H1 human embryonic stem cells were grown on reduced growth factor […]™ (Invitrogen; Cat #356231)-coated tissue culture plastic. Cells were passaged using collagenase (Invitrogen; Cat #17104-019) treatment and gentle scraping, washed to remove residual enzyme, and plated with even dispersal at a ratio of 1:1 (surface area) on reduced growth factor […]™-coated 96-well black plates (Packard ViewPlates; PerkinElmer; Cat #6005182) using volumes of 100 μl/well. Cells were allowed to attach as clusters and then recover log phase growth over a 1 to 3 day period, feeding daily with MEF-conditioned medium supplemented with 8 ng/ml bFGF (R&D Systems; Cat #233-FB). Plates were maintained at 37° C., 5% CO2 in a humidified box throughout the duration of the assay. Stocks of growth factors purchased from R&D Systems were EGF (Cat #236-EG), FGF4 (Cat #235-F4), PDGF-A (Cat #221-AA), PDGF-D (Cat #1159-SB), PDGF-A/B (Cat #222-AB), and VEGF (Cat #293-VE). […] All growth factors were solubilized in PBS with 0.1% BSA (Sigma; Cat #A7888) and stored frozen at −80° C. […] Cat #D2650) and stored frozen at −80° C. Compounds were available as 5 mM stocks in 96-well plate format, solubilized in 100% DMSO and stored at −80° C. Compounds were further diluted to an intermediate concentration of 0.2 mM in 50 mM HEPES (Invitrogen; Cat #15630-080), 20% DMSO and stored at 4° C. All growth factors and inhibitors were prepared in a deep well, 96-well polypropylene plate, diluted to 5× intermediate stocks in DMEM:F12 base medium at the beginning of assay and stored at 4° C. A secondary screening assay was conducted, testing in triplicate and feeding on alternate days over the four-day assay timeframe. Assays were initiated by aspirating culture medium from each well followed by three washes in PBS to remove residual growth factors and serum. Test volumes of 80 μl per well were added back containing DMEM:F12 base medium (Invitrogen; Cat #11330-032) supplemented with 0.625% FCS (HyClone; […] All remaining growth factors were tested at a final assay concentration of 50 ng/ml (EGF, FGF4, PDGF-A, PDGF-A/B, VEGF). […] At the conclusion of four-days of culture, assay plates were washed twice with PBS, fixed with 4% paraformaldehyde (Alexis Biochemical; Cat #ALX-350-011) at room temperature for 20 minutes, then washed three times with PBS and permeabilized with 0.5% Triton X-100 (Sigma; Cat #T8760-2) for 20 minutes at room temperature. Cells were washed again three times with PBS and blocked with 4% chicken serum (Invitrogen; Cat #16110082) in PBS for 30 minutes at room temperature. Primary antibody (goat anti-human SOX17; R&D Systems; cat #AF1924) was diluted 1:100 in 4% chicken serum and added to each well for one hour at room temperature. Alexa Fluor 488 conjugated secondary antibody (chicken anti-goat IgG; Molecular Probes; Cat #AZ1467) was diluted 1:200 in PBS and added to each sample well after washing three times with PBS. To counterstain nuclei, 4 μg/ml Hoechst 33342 (Invitrogen; Cat #H3570) was added for ten minutes at room temperature. Plates were washed once with PBS and left in 100 μl/well PBS for imaging. Imaging was performed using an IN Cell Analyzer 1000 (GE Healthcare) utilizing the 51008bs dichroic for cells stained with Hoechst 33342 and Alexa Fluor 488. Exposure times were optimized from positive control wells and from untreated negative control wells stained with secondary antibody alone. Images from 15 fields per well were acquired to compensate for any cell loss during the bioassay and subsequent staining procedures. […] Segmentation for the nuclei was determined based on grayscale levels (baseline range 100-300) and nuclear size. Averages and standard deviations were calculated for each replicate data set. Total SOX17 protein expression was reported as total intensity or integrated intensity, defined as total fluorescence of the cell multiplied by the area of the cell. […]

[1] = EGF + FGF4 + PDGF-AB + Muscimol

Compound | Cell Number, % of positive control (EGF) | Cell Number, Average Total Cell Number (EGF) | Sox17 Expression, % of positive control (EGF) | Sox17 Expression, Average Total Intensity (EGF) | Cell Number, % of positive control (EGF + FGF4) | Cell Number, Average Total Cell Number (EGF + FGF4) | Sox17 Expression, % of positive control (EGF + FGF4) | Sox17 Expression, Average Total Intensity (EGF + FGF4) | Cell Number, % of positive control (EGF + FGF4 + PDGF-A + Muscimol) | Cell Number, Average Total Cell Number (EGF + FGF4 + PDGF-A + Muscimol) | Sox17 Expression, % of positive control (EGF + FGF4 + PDGF-A + Muscimol) | Sox17 Expression, Average Total Intensity (EGF + FGF4 + PDGF-A + Muscimol) | Cell Number, % of positive control (EGF + FGF4 + PDGF-A + VEGF) | Cell Number, Average Total Cell Number (EGF + FGF4 + PDGF-A + VEGF) | Sox17 Expression, % of positive control (EGF + FGF4 + PDGF-A + VEGF) | Sox17 Expression, Average Total Intensity (EGF + FGF4 + PDGF-A + VEGF) | Cell Number, % of positive control (EGF + FGF4 + PDGF-AB) | Cell Number, Average Total Cell Number (EGF + FGF4 + PDGF-AB) | Sox17 Expression, % of positive control (EGF + FGF4 + PDGF-AB) | Sox17 Expression, Average Total Intensity (EGF + FGF4 + PDGF-AB) | further results
CN1CCC(=O)NCCCNc2ncccc2-c2ncnc(n2)Nc2cccc(c2)C1 [Compound 39, 9-Methyl-2,3,4,5,7,8,9,10-octahydro-16H-17,21-(azeno)-11,15-(metheno)pyrido[3,2-g][1,3,5,9,13,17]hexaazacyclotricosin-6(1H)-one] | 122.85% | 11615 | 0.09% | 1.49E+05 | 110.59% | 10456 | 2.98% | 5.11E+06 | 96.28% | 9103 | 0.43% | 7.32E+05 | 84.33% | 7973 | 3.09% | 5.30E+06 | 105.47% | 9972 | 0.94% | 1.62E+06 | Cell Number, % of positive control [1]: 111.48%; Cell Number, Average Total Cell Number [1]: 10540; Sox17 Expression, % of positive control [1]: 1.29%; Sox17 Expression, Average Total Intensity [1]: 2.22E+06; Cell Number, % of positive control (EGF + PDGF-A + VEGF): 180.34%; Cell Number, Average Total Cell Number (EGF + PDGF-A + VEGF): 17050; Sox17 Expression, % of positive control (EGF + PDGF-A + VEGF): 2.82%; Sox17 Expression, Average Total Intensity (EGF + PDGF-A + VEGF): 4.84E+06; Cell Number, % of positive control (FGF4 + PDGF-A + VEGF): 93.67%; Cell Number, Average Total Cell Number (FGF4 + PDGF-A + VEGF): 8856; Sox17 Expression, % of positive control (FGF4 + PDGF-A + VEGF): 0.41%; Sox17 Expression, Average Total Intensity (FGF4 + PDGF-A + VEGF): 7.01E+05
CCN1CCCc2cccc(c2)-c2ncnc(n2)Nc2cccc(c2)CCNC(=O)C1 [Compound 29, 18-Ethyl-3,5,7,15,18,28-hexaazatetracyclo[20.3.1.1˜2,6˜0.1˜8,12˜]octacosa-1(26), 2(28), 3,5,8(27), 9,11,22,24-nonaen-16-one] | 18.84% | 1971 | −9.00% | −1.44E+07 | 71.10% | 7436 | −2.72% | −4.35E+06 | 96.30% | 10071 | 1.85% | 2.95E+06 | 84.70% | 8858 | −4.48% | −7.15E+06 | 62.48% | 6535 | −4.71% | −7.52E+06 | Cell Number, % of positive control [1]: 13.15%; Cell Number, Average Total Cell Number [1]: 1376; Sox17 Expression, % of positive control [1]: −8.91%; Sox17 Expression, Average Total Intensity [1]: −1.42E+07; Cell Number, % of positive control (EGF + PDGF-A + VEGF): 84.91%; Cell Number, Average Total Cell Number (EGF + PDGF-A + VEGF): 8880; Sox17 Expression, % of positive control (EGF + PDGF-A + VEGF): −5.34%; Sox17 Expression, Average Total Intensity (EGF + PDGF-A + VEGF): −8.53E+06; Cell Number, % of positive control (FGF4 + PDGF-A + VEGF): 77.89%; Cell Number, Average Total Cell Number (FGF4 + PDGF-A + VEGF): 8146; Sox17 Expression, % of positive control (FGF4 + PDGF-A + VEGF): −3.02%; Sox17 Expression, Average Total Intensity (FGF4 + PDGF-A + VEGF): −4.82E+06
O=C1CCN2CCN(CC2)Cc2cc(Cl)cc(c2)Nc2ncnc(n2)-c2cncc(c2)CCCN1 [Compound 34, 5-Chloro-1,8,10,12,16,22,26,32-octaazapentacyclo[24.2.2.1˜3.7˜0.1˜9,13˜0.1˜14.18˜]tritriaconta-3(33), 4,6,9(32), 10,12,14(31), 15,17-nonaen-23-one] | 124.89% | 13062 | 17.39% | 2.78E+07 | 125.58% | 13133 | 76.85% | 1.23E+08 | 116.72% | 12208 | 34.83% | 5.56E+07 | 123.36% | 12901 | 31.35% | 5.01E+07 | 119.83% | 12532 | 68.41% | 1.09E+08 | response with growth factors (cell numbers and SOX17 expression) (2.5 μM, all growth factor combinations tested, no activin A): significant synergistic responses with all growth factors tested; Cell Number, % of positive control [1]: 151.18%; Cell Number, Average Total Cell Number [1]: 15811; Sox17 Expression, % of positive control [1]: 4.32%; Sox17 Expression, Average Total Intensity [1]: 6.90E+06; Cell Number, % of positive control (EGF + PDGF-A + VEGF): 112.84%; Cell Number, Average Total Cell Number (EGF + PDGF-A + VEGF): 11801; Sox17 Expression, % of positive control (EGF + PDGF-A + VEGF): 2.53%; Sox17 Expression, Average Total Intensity (EGF + PDGF-A + VEGF): 4.04E+06; Cell Number, % of positive control (FGF4 + PDGF-A + VEGF): 145.93%; Cell Number, Average Total Cell Number (FGF4 + PDGF-A + VEGF): 15262; Sox17 Expression, % of positive control (FGF4 + PDGF-A + VEGF): 7.18%; Sox17 Expression, Average Total Intensity (FGF4 + PDGF-A + VEGF): 1.15E+07
